Results taken from patent publication US20100272831A1, “PROCESS FOR MANUFACTURING NANOCOMPOSITE MATERIALS FOR MULTISECTORAL APPLICATIONS” (NANOBIOMATTERS, S.L., priority 2005, published 2010).

Experiments:
[1] = Interlayer (basal) spacing of montmorillonite clay treated with expansive-type precursors/modifiers; assay type: physicochemical
[2] = Interlayer (basal) spacing of kaolinite clay treated with expansive-type precursors/modifiers; assay type: physicochemical
From the text: The penetration of the precursors is accelerated by means of the use of temperature, a turbulent regime homogenizer, ultrasound, pressure or a combination thereof. They can be dried by evaporation in a stove, lyophilization, centrifugation processes and/or gravimetric processes in solution or turbo-drying processes or by atomization processes.
In this example the modification process consists of a first step in which the purified kaolinite and montmorillonite clay fining agents are pretreated with an ethanol/water 50/50 (v/v) mixture at 50° C. This process was carried out together with an ultrasonic stirring treatment process for 1 hour and with stirring with a homogenizer for 2 hours to favor the intercalation of the precursor in the clay. The solvent was then removed by means of lyophilization and/or evaporation. […]

[3] = kaolinite of Table 1, spacing of the clay with the named modifier
[4] = montmorillonite, spacing of the clay with the named modifier

Row | dMODIFIER [2, 3] | Compound | dMODIFIER [1, 4] | also measured
1 | – | OCCO [Ethylene glycol] | – | dMODIFIER [1]: 0.95 nm
2 | – | CC(=O)[O-].[K+] [Potassium acetate] | – | dMODIFIER [2]: 1.39 nm
3 | – | OCCOCCO [Diethylene glycol] | 1.04 nm | –
4 | – | Calcium butyrate | 0.92 nm | –
5 | – | CC(O)CO (stereo not drawn) [Propylene glycol] | 1.01 nm | –
6 | – | OC[C@@H](O)[C@H]1OC[C@H](O)[C@H]1O [Sorbitan] | 1.09 nm | –
7 | 1.01 nm | CCCC(=O)O [Butyric acid] | – | –
8 | 1.09 nm | CC(N)=O [Acetamide] | – | –
9 | 1.03 nm | O=C(O)CCCCC(=O)O [Adipic acid] | – | –
10 | – | Sucrose acetoisobutyrate | 1.08 nm | –
11 | – | C=CN1CCCC1=O [Vinyl pyrrolidone] | 1.23 nm | –
12 | – | OC[C@@H](O)[C@@H](O)[C@H](O)[C@@H](O)CO [Sorbitol] | 1.19 nm | –
13 | – | O=C(O)CO [Glycolic acid] | 1.06 nm | –
14 | 1.02 nm | C1CCCCC1 [Hexamethylene] | – | –
15 | 1.18 nm | O=C1CCCCCN1 [Caprolactam] | – | –
16 | – | OCC(O)CO [Glycerol] | 1.02 nm | –
17 | 1.11 nm | C[S+](C)[O-] [Dimethyl sulfoxide (DMSO), Dimethyl sulfoxide] | – | –
18 | 1.09 nm | O=C(OC[C@H]1O[C@@H](OC(=O)c2cc(O)c(O)c(OC(=O)c3cc(O)c(O)c(O)c3)c2)[C@H](OC(=O)c2cc(O)c(O)c(OC(=O)c3cc(O)c(O)c(O)c3)c2)[C@@H](OC(=O)c2cc(O)c(O)c(OC(=O)c3cc(O)c(O)c(O)c3)c2)[C@@H]1OC(=O)c1cc(O)c(O)c(OC(=O)c2cc(O)c(O)c(O)c2)c1)c1cc(O)c(O)c(OC(=O)c2cc(O)c(O)c(O)c2)c1 [Tannic acid] | – | –
19 | – | Vinyl versatate | 1.11 nm | –
20 | – | OCCOCCOCCO [Triethylene glycol] | 1.08 nm | –
21 | – | Manganese butyrate | 0.95 nm | –
22 | 1.20 nm | O=C(O)/C=C\C(=O)O [Maleic acid] | – | –
23 | 1.20 nm | O=C1C=CC(=O)O1 [Maleic anhydride] | – | –
24 | – | OCCCO [1,3-Propanediol] | 0.98 nm | –
25 | 1.08 nm | CC(O)C(=O)O (stereo not drawn) [Lactic acid] | – | –
26 | 1.07 nm | O=C(O)c1ccccc1O [Salicylic acid] | – | –
27 | – | FC(F)=C(F)F [Tetrafluoroethylene] | – | dMODIFIER [2]: 0.98 nm
28 | – | CC(O)CO (stereo not drawn) [1,2-Propanediol] | 1.09 nm | –
29 | – | OC[C@@H](O)[C@@H](O)[C@@H](O)CO [Adonitol] | 1.04 nm | –

Row | Compound | dMODIFIER [2, 3] | dMODIFIER [1, 4] | also measured
30 | C=COC(C)=O [Vinyl acetate] | 1.21 nm | – | –
31 | NN.O [Hydrated hydrazine] | 1.03 nm | – | –
32 | CC(=O)O [Acetic acid] | 1.10 nm | – | –
33 | CC=O [Acetaldehyde] | 0.91 nm | – | –
34 | NN [Anhydrous hydrazine] | 0.96 nm | – | –
35 | CCCCCC(=O)O [Hexanoic acid] | 1.23 nm | – | –
36 | Manganese acetate | 1.41 nm | – | –
37 | O [Water] | 0.78 nm | – | –
38 | C=CC(N)=O [Archylamide] | 1.14 nm | – | –
39 | CNC=O [N-methyl formamide (NMF), N-methyl formamide] | 1.02 nm | – | –
